Counter-ions that a name gives are not always drawn. Like-named read-outs stand apart in the source and are kept apart here.
Legend:
Format in all cases: cell-based
Conditions in all cases: lowest concentration inhibiting 95% of bacterial growth, in the presence of β lactamase inhibitor (BLi, Relebactam), 22 hours, 35±2° C., OD600
[1] = system: Acinetobacter baumannii expressing TEM-1, AmpC, and Oxa-24/40 (CL6188)
Description: (§1) Antibiotic Activity: Determination of Growth Inhibitory Concentration
(§2) The concentrations of compounds required to inhibit the growth of various strains of bacteria were determined in an assay that assessed bacterial growth by measuring optical density at 600 nm (OD600). The bacterial strains tested included the clinical strains Escherichia coli expressing NDM-1 (CLB30016), Klebsiella pneumoniae expressing KPC-1 (CL6569), Acinetobacter baumannii expressing TEM-1, AmpC, and Oxa-24/40 (CL6188) and Pseudomonas aeruginosa expressing AmpC (CL5701). All compounds were tested in the presence of a β lactamase inhibitor (BLi, Relebactam) in 384-well microplates. The clinical strains were stored as frozen single use stocks, thawed and diluted into 1.1× cation-adjusted Mueller-Hinton II broth to achieve approximately 2×10^5 CFU/mL. Test compounds were dissolved in DMSO and diluted 1:50 in the assay, resulting in a final concentration range of 100 μM to 0.098 μM. On the day of the assay, 1 μL of test compound was added to the plate followed by 4 μL of 50 μg/mL BLi in MOPS buffer and 45 μL of diluted bacteria. Plates were centrifuged at 1000 rpm for 30 seconds, shaken at approximately 800 rpm for 1 minute, and incubated at 35±2° C. for 22 hours. The concentration of BLi used in the assay was […]. At the end of the incubation, absorbance at 600 nm was determined using a spectrophotometer. Inhibition was quantitated by identifying the lowest concentration of test compound that was required to inhibit 95% of the growth of the bacteria. The results for Examples 1-39 are reported in Table I, expressed as the concentration of compound that inhibited 95% of bacterial growth (Minimum Inhibitory Threshold Concentration; MITC95).

[2] = system: Escherichia coli expressing NDM-1 (CLB30016)
Description: as §1, §2

[3] = system: Klebsiella pneumoniae expressing KPC-1 (CL6569)
Description: as §1, §2

[4] = system: Pseudomonas aeruginosa expressing AmpC (CL5701)
Description: as §1, §2

| SMILES | AB_CL6188 MITC95 [1] [µM] | EC_CLB30016 MITC95 [2] [µM] | KP_CL6569 MITC95 [3] [µM] | PA_CL5701 MITC95 [4] [µM] | AB_CL6188 MITC95 ([1]; sulfate formate) [µM] | EC_CLB30016 MITC95 ([2]; sulfate formate) [µM] | KP_CL6569 MITC95 ([3]; sulfate formate) [µM] | PA_CL5701 MITC95 ([4]; sulfate formate) [µM] |
| --- | --- | --- | --- | --- | --- | --- | --- | --- |
| CC1(C)[C@H](NC(=O)/C(=N\O[C@](C)(C(=O)O)[C@H]2CCc3cc(C4CN=C(NCCCN)NC4)ccc3O2)c2csc(N)n2)C(=O)N1OS(=O)(=O)O (stereo partly drawn) [Example 27, (2S)-2-((2R)-6-(2-((3-aminopropyl)amino)-1,4,5,6-tetrahydropyrimidin-5-yl)chroman-2-yl)-2-(((Z)-(1-(2-aminothiazol-4-yl)-2-(((S)-22-dimethyl-4-oxo-1-(sulfooxy)azetidin-3-yl)amino)-2-oxoethylidene)amino)oxy)propanoic Acid] | 12.5 | 12.5 | 0.7813 | 6.25 |  |  |  |  |
| C[n+]1cc(-c2ccc3c(c2)CC[C@H]([C@](C)(O/N=C(\C(=O)N[C@@H]2C(=O)N(OS(=O)(=O)[O-])C2(C)C)c2csc(N)n2)C(=O)O)O3)cnc1NC(CN)CN.O=CO [Example 24, (3S)-3-((Z)-2-(((1S)-1-((2R)-6-(2-((1-amino-3-ammonio-propan-2-yl)amino)-1-methyl-pyrimidin-1-ium-5-yl)chroman-2-yl)-1-carboxyethoxy)imino)-2-(2-aminothiazol-4-yl)acetamido)-2,2-dimethyl-4-oxoazetidin-1-yl sulfate formate] | 1.563 | 3.125 | 0.3906 | 3.125 |  |  |  |  |
| C[n+]1cc(-c2ccc3c(c2)CC[C@H]([C@](C)(O/N=C(\C(=O)N[C@@H]2C(=O)N(OS(=O)(=O)[O-])C2(C)C)c2csc(N)n2)C(=O)O)O3)ccc1CC(CN)CN.O=CO [Example 16, (3S)-3-((Z)-2-(((1S)-1-((2R)-6-(6-(3-amino-2-(ammonio-methyl)propyl)-1-methylpyridin-1-ium-3-yl)chroman-2-yl)-1-carboxyethoxy)imino)-2-(2-aminothiazol-4-yl)acetamido)-2,2-dimethyl-4-oxoazetidin-1-yl sulfate formate] | 3.125 | 6.25 | 0.3906 | 3.125 |  |  |  |  |
| C[n+]1cc(-c2ccc3c(c2)CC[C@H]([C@](C)(O/N=C(\C(=O)N[C@@H]2C(=O)N(OS(=O)(=O)[O-])C2(C)C)c2csc(N)n2)C(=O)O)O3)cn1C[C@H](O)CN [Example 7, (S)-3-((Z)-2-(((S)-1-((R)-6-(1-((R)-3-amino-2-hydroxypropyl)-2-methyl-1H-pyrazol-2-ium-4-yl)chroman-2-yl)-1-carboxyethoxy)imino)-2-(2-aminothiazol-4-yl)acetamido)-2,2-dimethyl-4-oxoazetidin-1-yl sulfate] | 25 | 25 | 1.563 | 12.5 |  |  |  |  |
| CC1(C)[C@H](NC(=O)/C(=N\O[C@](C)(C(=O)O)[C@H]2CCc3cc(C4CN=C(NCCN)NC4)ccc3O2)c2csc(N)n2)C(=O)N1OS(=O)(=O)O.O=CO (stereo partly drawn) [Example 30, 2-((2-aminoethyl)amino)-5-((R)-2-((S)-1-((((Z)-1-(2-aminothiazol-4-yl)-2-(((S)-2,2-dimethyl-4-oxo-1-(sulfooxy)azetidin-3-yl)amino)-2-oxoethylidene)amino)oxy)-1-carboxyethyl)chroman-6-yl)-3,4,5,6-tetrahydropyrimidin-1-ium formate] | 25 | 25 | 3.125 | 6.25 |  |  |  |  |
| C[n+]1cc(-c2ccc3c(c2)CC[C@H]([C@](C)(O/N=C(\C(=O)N[C@@H]2C(=O)N(OS(=O)(=O)[O-])C2(C)C)c2csc(N)n2)C(=O)O)O3)ccc1NC(CN)CN.O=CO [Example 23B, (3S)-3-((Z)-2-(((1S)-1-((2R)-6-(6-((1-amino-3-ammoniopropan-2-yl)amino)-1-methylpyridin-1-ium-3-yl)chroman-2-yl)-1-carboxyethoxy)imino)-2-(2-aminothiazol-4-yl)acetamido)-2,2-dimethyl-4-oxoazetidin-1-yl sulfate formate] |  |  |  |  | 12.5 | 100 | 3.125 | 25 |
| C[n+]1cc(-c2ccc3c(c2)CC[C@H]([C@](C)(O/N=C(\C(=O)N[C@@H]2C(=O)N(OS(=O)(=O)[O-])C2(C)C)c2csc(N)n2)C(=O)O)O3)ccc1NC(CN)CN.O=CO [Example 23A, (3S)-3-((Z)-2-(((1S)-1-((2R)-6-(6-((1-amino-3-ammoniopropan-2-yl)amino)-1-methylpyridin-1-ium-3-yl)chroman-2-yl)-1-carboxyethoxy)imino)-2-(2-aminothiazol-4-yl)acetamido)-2,2-dimethyl-4-oxoazetidin-1-yl sulfate formate] |  |  |  |  | 6.25 | 12.5 | 0.3906 | 3.125 |
| CC1(C)[C@H](NC(=O)/C(=N/O[C@](C)(C(=O)O)[C@H]2CCc3cc(C4CN=C(NC[C@H](O)CN)NC4)ccc3O2)c2csc(N)n2)C(=O)N1OS(=O)(=O)O.O=CO (stereo partly drawn) [Example 28, 2-(((R)-3-amino-2-hydroxypropyl)amino)-5-((R)-2-((S)-1-((((E)-1-(2-aminothiazol-4-yl)-2-(((S)-2,2-dimethyl-4-oxo-1-(sulfooxy)azetidin-3-yl)amino)-2-oxoethylidene)amino)oxy)-1-carboxyethyl)chroman-6-yl)-3,4,5,6-tetrahydropyrimidin-1-ium formate] | 3.13 | 6.25 | 0.2 | 3.13 |  |  |  |  |
| CC1(C)[C@H](NC(=O)/C(=N\O[C@](C)(C(=O)O)[C@H]2CCc3cc(-c4cnc(NC[C@@H](O)CN)[n+](CC5CNC5)c4)ccc3O2)c2csc(N)n2)C(=O)N1OS(=O)(=O)[O-].O=CO [Example 20, (S)-3-((Z)-2-(((S)-1-((R)-6-(2-(((S)-3-amino-2-hydroxy-propyl)amino)-1-(azetidin-1-ium-3-ylmethyl)pyrimidin-1-ium-5-yl)chroman-2-yl)-1-carboxyethoxy)imino)-2-(2-aminothiazol-4-yl)acetamido)-2,2-dimethyl-4-oxoazetidin-1-yl sulfate formate] | 6.25 | 6.25 | 0.3906 | 6.25 |  |  |  |  |
| CC1(C)[C@H](NC(=O)/C(=N\O[C@](C)(C(=O)O)[C@H]2CCc3cc(-c4ccc(NCCCN)[n+](CC5CNC5)c4)ccc3O2)c2csc(N)n2)C(=O)N1OS(=O)(=O)[O-].O=CO [Example 22, (S)-3-((Z)-2-(((S)-1-((R)-6-(6-((3-aminopropyl)amino)-1-(azetidin-1-ium-3-ylmethyl)pyridin-1-ium-3-yl)chroman-2-yl)-1-carboxyethoxy)imino)-2-(2-aminothiazol-4-yl)acetamido)-2,2-dimethyl-4-oxoazetidin-1-yl sulfate formate] | 12.5 | 12.5 | 0.7813 | 25 |  |  |  |  |
| CC1(C)[C@H](NC(=O)/C(=N\O[C@](C)(C(=O)O)[C@H]2CCc3cc(-c4cnc(NC[C@H](O)CN)[n+](CC5CNC5)c4)ccc3O2)c2csc(N)n2)C(=O)N1OS(=O)(=O)[O-].O=CO [Example 19, (S)-3-((Z)-2-(((S)-1-((R)-6-(2-(((R)-3-amino-2-hydroxy-propyl)amino)-1-(azetidin-1-ium-3-ylmethyl)pyrimidin-1-ium-5-yl)chroman-2-yl)-1-carboxyethoxy)imino)-2-(2-aminothiazol-4-yl)acetamido)-2,2-dimethyl-4-oxoazetidin-1-yl sulfate formate] | 12.5 | 6.25 | 0.7813 | 12.5 |  |  |  |  |
| CC1(C)[C@H](NC(=O)/C(=N\O[C@](C)(C(=O)O)[C@H]2CCc3cc(-c4cn(CCCN)c(=N)n4C[C@H](O)CO)ccc3O2)c2csc(N)n2)C(=O)N1OS(=O)(=O)O [Example 9, (S)-3-((Z)-2-(((S)-1-((R)-6-(1-(3-aminopropyl)-3-((S)-2,3-dihydroxypropyl)-2-imino-2,3-dihydro-1H-imidazol-4-yl)chroman-2-yl)-1-carboxyethoxy)imino)-2-(2-aminothiazol-4-yl)acetamido)-2,2-dimethyl-4-oxoazetidin-1-yl sulfate] | 12.5 | 12.5 | 0.3906 | 6.25 |  |  |  |  |
| CC1(C)[C@H](NC(=O)/C(=N\O[C@](C)(C(=O)O)[C@H]2CCc3cc(-c4ccc5[n+](c4)CC(CN)CN5CCN)ccc3O2)c2csc(N)n2)C(=O)N1OS(=O)(=O)[O-].O=CO (stereo partly shown) [Example 39] | 7.292 | 12.5 | 0.3255 | 3.125 |  |  |  |  |
